Assay results from US9428519B2, “Acylated derivative of homoharringtonine, preparation method therefor, and application thereof” (HANGZHOU BENSHENG PHARMACEUTICAL CO., LTD., priority 2011, dated 2016).
Converted amounts (≈) assume the structure as drawn.

Experiments:
[1] = tested on: RPMI8226 (multiple myeloma); test: MTT growth inhibition of multiple myeloma cells, 72 h; type: cell-based, human
Outline: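 Growth inhibition read by MTT after 72 h compound exposure (37 °C, 5% CO2) of 6000 RPMI8226 cells per well in 1640 medium plus 10% fetal bovine serum. Viability expressed against untreated cells (100%), from which the 72 h IC50 was derived.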

[2] = tested on: Huh7 (human liver cancer cell); test: MTT growth inhibition of human solid tumor cells, 72 h; type: cell-based
Outline: (§1)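 First, 4000 tumour cells per well are plated in DMEM high glucose containing 10% fetal bovine serum and kept 24 h at 37° C. Next, test derivatives are mixed in at different concentrations for a further 72 h. Finally, MTT measures viable cells against an untreated 100% control.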

[3] = tested on: SK-OV-3 (ovarian cancer cell); test: as above; type: cell-based
Outline: as §1

PC-3 (prostate cancer) = test: as above; type: cell-based; conditions: MTT
Outline: as §1

[4] = tested on: CaES-17 (esophageal cancer cell); test: as above; type: cell-based
Outline: as §1

[5] = tested on: Hela (human cervical cancer cell); test: as above; type: cell-based
Outline: as §1

[6] = tested on: PANC-1 (pancreatic cancer); test: as above; type: cell-based
Outline: as §1

[7] = tested on: Becap37 (human breast cancer cell); test: as above; type: cell-based
Outline: as §1

[8] = tested on: Hep-2 (laryngeal carcinoma); test: as above; type: cell-based
Outline: as §1

[9] = tested on: U87 MG (malignant glioma cell); test: as above; type: cell-based
Outline: as §1

MG63 (osteosarcoma) = test: as above; type: cell-based
Outline: as §1

[10] = tested on: CNE (nasopharyngeal carcinoma cell); test: as above; type: cell-based
Outline: as §1

[11] = tested on: RKO (human colon adenocarcinoma cell); test: as above; type: cell-based
Outline: as §1

A549 (human lung cancer) = test: as above; type: cell-based
Outline: as §1

[12] = tested on: MGC 803 (human gastric cancer cell); test: as above; type: cell-based
Outline: as §1

[13] = tested on: Jurkat (acute lymphoblastic leukemia, ALL); test: MTT growth inhibition of leukemia cells, 72 h; type: cell-based, human
Outline: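 Growth inhibition of the Jurkat ALL line was measured by MTT after 72 hours of compound exposure at 37° C. under 5% CO2. Wells of a 96-well plate held 6000 cells in 1640 medium plus 10% fetal bovine serum; untreated controls defined 100% viability, and inhibitory concentrations were derived from percent viability.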

[14] = tested on: H9 (acute lymphoblastic leukemia, ALL); test: MTT growth inhibition of leukemia cells, 72 h; type: cell-based, human; conditions: MTT
Outline: (§2)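 Growth inhibition is scored by MTT after a 72 h exposure at 37 °C in 5% CO2, with cells plated at 6000 per well in RPMI 1640 containing 10% fetal bovine serum. IC50 comes from viability relative to untreated cells.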

[15] = tested on: Kasumi-1 (acute myeloid leukemia M2 type, AML-M2); test: MTT growth inhibition of leukemia cells, 72 h; type: cell-based, human
Outline: as §2

[16] = tested on: K562/adr (drug-resistant, chronic myeloid leukemia, CML); test: MTT growth inhibition of leukemia cells, 72 h; type: cell-based, human; conditions: MTT
Outline: as §2

[17] = tested on: NB4 (acute promyelocytic leukemia, AML); test: MTT growth inhibition of leukemia cells, 72 h; type: cell-based, human; conditions: MTT
Outline: as §2

COC(=O)C[C@](O)(CCCC(C)(C)OC(=O)c1scnc1C)C(=O)O[C@@H]1C(OC)=C[C@]23CCCN2CCc2cc4c(cc2[C@H]13)OCO4 [BS-HH-0721]
IC50 ([1]; Homo sapiens, RPMI-8226, MTT): 0.002 µg/mL (≈ 0.00298 µM) | IC90 ([1]; Homo sapiens, RPMI-8226, MTT): 0.014 µg/mL (≈ 0.0209 µM) | IC50 ([2]; Homo sapiens, Huh-7): 0.0022 µg/mL (≈ 0.00328 µM) | IC90 ([2]; Homo sapiens, Huh-7): 0.038 µg/mL (≈ 0.0567 µM) | IC50 ([3]; Homo sapiens, SK-OV-3, MTT): 0.022 µg/mL (≈ 0.0328 µM) | IC90 ([3]; Homo sapiens, SK-OV-3, MTT): > 16 µg/mL | IC50 (PC-3 (prostate cancer); Homo sapiens): 0.04 µg/mL (≈ 0.0596 µM) | IC90 (PC-3 (prostate cancer); Homo sapiens): > 16 µg/mL | IC50 ([4]; Homo sapiens, CaEs17): 0.014 µg/mL (≈ 0.0209 µM) | IC90 ([4]; Homo sapiens, CaEs17): 16 µg/mL (≈ 23.9 µM) | IC50 ([5]; Homo sapiens, HeLa, MTT): 0.005 µg/mL (≈ 0.00745 µM) | IC90 ([5]; Homo sapiens, HeLa, MTT): 16 µg/mL (≈ 23.9 µM) | anti-Hela effect relative to homoharringtonine ([5]; vs HHT): > 4.0 fold | IC50 ([6]; Homo sapiens, PANC-1, MTT): 0.009 µg/mL (≈ 0.0134 µM) | IC90 ([6]; Homo sapiens, PANC-1, MTT): > 16 µg/mL | anti-PANC-1 effect relative to homoharringtonine ([6]; vs HHT): > 4 fold | IC50 ([7]; Homo sapiens): 0.003 µg/mL (≈ 0.00447 µM) | IC90 ([7]; Homo sapiens): 8.17 µg/mL (≈ 12.2 µM) | IC50 ([8]; Homo sapiens, HEp-2): 0.004 µg/mL (≈ 0.00596 µM) | IC90 ([8]; Homo sapiens, HEp-2): > 16 µg/mL | IC50 ([9]; Homo sapiens, U-87 MG): 0.008 µg/mL (≈ 0.0119 µM) | IC90 ([9]; Homo sapiens, U-87 MG): 0.07 µg/mL (≈ 0.104 µM) | IC50 (MG63 (osteosarcoma); Homo sapiens, MG-63, MTT): 0.006 µg/mL (≈ 0.00894 µM) | IC90 (MG63 (osteosarcoma); Homo sapiens, MG-63, MTT): 0.44 µg/mL (≈ 0.656 µM) | anti-MG63 effect relative to homoharringtonine (MG63 (osteosarcoma); vs HHT): substantially superior | IC50 ([10]; Homo sapiens, MTT): 0.0037 µg/mL (≈ 0.00552 µM) | IC90 ([10]; Homo sapiens, MTT): > 16 µg/mL | anti-CNE effect relative to homoharringtonine ([10]; vs HHT): more than 10 fold | IC50 ([11]; Homo sapiens, MTT): 0.0009 µg/mL (≈ 0.00134 µM) | IC90 ([11]; Homo sapiens, MTT): 0.005 µg/mL (≈ 0.00745 µM) | anti-RKO effect relative to homoharringtonine ([11]; vs HHT): substantially superior | IC50 (A549 (human lung cancer); Homo sapiens, A549): 0.01 µg/mL (≈ 0.0149 µM) | IC90 (A549 (human lung cancer); Homo sapiens, A549): > 16 µg/mL | IC50 ([12]; Homo sapiens, MGC-803): 0.006 µg/mL (≈ 0.00894 µM) | IC90 ([12]; Homo sapiens, MGC-803): 0.019 µg/mL (≈ 0.0283 µM) | IC50 ([13]; Homo sapiens, Jurkat): 0.002 µg/mL (≈ 0.00298 µM) | IC90 ([13]; Homo sapiens, Jurkat): ≥ 16 µg/mL | IC50 ([14]; Homo sapiens): 0.003 µg/mL (≈ 0.00447 µM) | IC90 ([14]; Homo sapiens): 0.009 µg/mL (≈ 0.0134 µM) | IC50 ([15]; Homo sapiens, Kasumi 1, MTT): 0.002 µg/mL (≈ 0.00298 µM) | IC90 ([15]; Homo sapiens, Kasumi 1, MTT): 0.004 µg/mL (≈ 0.00596 µM) | IC50 ([16]; Homo sapiens, K562/Adr): 0.01 µg/mL (≈ 0.0149 µM) | IC90 ([16]; Homo sapiens, K562/Adr): 0.05 µg/mL (≈ 0.0745 µM) | IC50 ([17]; Homo sapiens): 0.003 µg/mL (≈ 0.00447 µM) | IC90 ([17]; Homo sapiens): 0.005 µg/mL (≈ 0.00745 µM)

COC(=O)C[C@@](CCCC(C)(C)OC(=O)c1scnc1C)(OC(=O)c1scnc1C)C(=O)O[C@@H]1C(OC)=C[C@]23CCCN2CCc2cc4c(cc2[C@H]13)OCO4 [BS-HH-0722]
IC50 RPMI8226 ([1]; MTT): 0.29 µg/mL (≈ 0.364 µM) | IC90 RPMI8226 ([1]; MTT): 1.82 µg/mL (≈ 2.29 µM) | IC50 Huh7 [2]: 0.66 µg/mL (≈ 0.829 µM) | IC90 Huh7 [2]: 7.6 µg/mL (≈ 9.55 µM) | IC50 SK-OV-3 ([3]; MTT): 1.94 µg/mL (≈ 2.44 µM) | IC90 SK-OV-3 ([3]; MTT): >16 µg/mL | IC50 PC-3 (PC-3 (prostate cancer)): 0.82 µg/mL (≈ 1.03 µM) | IC90 PC-3 (PC-3 (prostate cancer)): >16 µg/mL | IC50 CaES-17 [4]: 1.24 µg/mL (≈ 1.56 µM) | IC90 CaES-17 [4]: 16 µg/mL (≈ 20.1 µM) | IC50 Hela ([5]; MTT): 0.87 µg/mL (≈ 1.09 µM) | IC90 Hela ([5]; MTT): >16 µg/mL | IC50 PANC-1 ([6]; MTT): 0.83 µg/mL (≈ 1.04 µM) | IC90 PANC-1 ([6]; MTT): >16 µg/mL | IC50 Becap37 [7]: 0.47 µg/mL (≈ 0.591 µM) | IC90 Becap37 [7]: 16 µg/mL (≈ 20.1 µM) | IC50 Hep-2 [8]: 0.48 µg/mL (≈ 0.603 µM) | IC90 Hep-2 [8]: >16 µg/mL | IC50 U87 MG [9]: 0.67 µg/mL (≈ 0.842 µM) | IC90 U87 MG [9]: 3.42 µg/mL (≈ 4.3 µM) | IC50 MG 63 (MG63 (osteosarcoma); MTT): 0.21 µg/mL (≈ 0.264 µM) | IC90 MG 63 (MG63 (osteosarcoma); MTT): 9.43 µg/mL (≈ 11.8 µM) | IC50 CNE ([10]; MTT): 0.77 µg/mL (≈ 0.967 µM) | IC90 CNE ([10]; MTT): >16 µg/mL | IC50 RKO ([11]; MTT): 0.22 µg/mL (≈ 0.276 µM) | IC90 RKO ([11]; MTT): 0.87 µg/mL (≈ 1.09 µM) | IC50 A549 (A549 (human lung cancer)): 0.89 µg/mL (≈ 1.12 µM) | IC90 A549 (A549 (human lung cancer)): >16 µg/mL | IC50 MGC 803 [12]: 0.5 µg/mL (≈ 0.628 µM) | IC90 MGC 803 [12]: 12 µg/mL (≈ 15.1 µM) | IC50 Jurkat [13]: 0.3 µg/mL (≈ 0.377 µM) | IC90 Jurkat [13]: ≥ 16 µg/mL | IC50 H9 [14]: 0.47 µg/mL (≈ 0.591 µM) | IC90 H9 [14]: 1.24 µg/mL (≈ 1.56 µM) | IC50 Kasumi-1 ([15]; MTT): 0.14 µg/mL (≈ 0.176 µM) | IC90 Kasumi-1 ([15]; MTT): 0.47 µg/mL (≈ 0.591 µM) | IC50 K562/adr [16]: 0.9 µg/mL (≈ 1.13 µM) | IC90 K562/adr [16]: 3.72 µg/mL (≈ 4.67 µM) | IC50 NB4 [17]: 0.2 µg/mL (≈ 0.251 µM) | IC90 NB4 [17]: 0.49 µg/mL (≈ 0.616 µM)
